# Test results reported in ChEMBL document CHEMBL1833939, “Pyrrolidin-3-yl-N-methylbenzamides as potent histamine 3 receptor antagonists” (Bioorg Med Chem Lett, 2011).
# Experiment: in vitro
# Settings: human
half-life (liver microsomes),half-life (microsomes),SMILES
15 min,–,Cc1nc2ccccc2n1-c1ccc(C(=O)N(C)[C@@H]2CCN(C3CCC3)C2)cc1
> 30 min,–,Cc1nc2ccccc2n1-c1ccc(C(=O)N(C)[C@@H]2CCN(C3CCCC3)C2)cc1
–,> 30 min,Cc1nc2ccccc2n1-c1ccc(C(=O)N(C)[C@@H]2CCN(C3CCCCC3)C2)cc1
